# Target: human TREK-1 (Homo sapiens (Human), UniProt O95069)
# Experiment: TREK-1 Thallium (Tl+) flux assay
# Type: cell-based
# Settings: CHO-K1 cells stably expressing human TREK-1
# human TREK-1, sequence (O95069 whole entry): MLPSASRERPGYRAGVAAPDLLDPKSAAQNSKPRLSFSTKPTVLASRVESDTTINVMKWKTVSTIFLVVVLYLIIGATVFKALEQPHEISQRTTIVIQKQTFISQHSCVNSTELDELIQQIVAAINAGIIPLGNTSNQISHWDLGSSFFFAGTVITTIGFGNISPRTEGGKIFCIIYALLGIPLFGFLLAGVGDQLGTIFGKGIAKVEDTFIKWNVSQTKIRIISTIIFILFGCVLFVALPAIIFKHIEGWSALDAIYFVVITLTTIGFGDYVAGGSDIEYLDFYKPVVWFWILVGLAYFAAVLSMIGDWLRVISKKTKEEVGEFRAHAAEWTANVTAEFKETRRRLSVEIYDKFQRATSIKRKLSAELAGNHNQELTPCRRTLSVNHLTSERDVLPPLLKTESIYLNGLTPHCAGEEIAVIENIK
row,Structure (SMILES),IC50
1,"Cc1cc(C#Cc2ccccc2)cnc1NC(=O)c1cc(-c2ccnn2C)ccc1Cl [Compound 61, 2-chloro-N-[3-methyl-5-(2-phenylethynyl)-2-pyridyl]-5-(2-methylpyrazol-3-yl)benzamide]",160 nM
2,"Cc1cc(C#Cc2ccccc2)cnc1NC(=O)c1cc(NC(=O)OC(C)(C)C)ccc1Cl [Compound 28, tert-butyl N-[4-chloro-3-[[3-methyl-5-(2-phenylethynyl)-2-pyridyl]carbamoyl]phenyl]carbamate]",140 nM
3,"C[C@H]1C[C@@H]1C(=O)Nc1ccc(Cl)c(C(=O)Nc2ncc(C#Cc3ccccc3)cc2F)c1 [Compound 2, 2-chloro-N-[3-fluoro-5-(2-phenylethynyl)-2-pyridyl]-5-[[(1S,2S)-2-methylcyclopropanecarbonyl]amino]benzamide]",90 nM
4,"Cc1cc(C#Cc2ccccc2)cnc1NC(=O)c1cc(-c2cnn(C3CCOC3)c2)ccc1Cl (stereo not shown) [Compound 66, 2-chloro-N-(3-methyl-5-(phenylethynyl)pyridin-2-yl)-5-(1-(tetrahydrofuran-3-yl)-1H-pyrazol-4-yl)benzamide]",220 nM
5,"Cc1cc(C#Cc2ccccc2)cnc1NC(=O)c1cc(C(=O)N2CC(O)(C(F)(F)F)C2)ccc1Cl [Compound 79, 2-chloro-5-[3-hydroxy-3-(trifluoromethyl)azetidine-1-carbonyl]-N-[3-methyl-5-(2-phenylethynyl)-2-pyridyl]benzamide]",870 nM
6,CC(=O)Nc1ccc(Cl)c(C(=O)Nc2ccc(OCc3ccccc3)cc2C)c1 [Compound 91],1030 nM
7,"CC(C)(C)OC(=O)Nc1ccc(Cl)c(C(=O)Nc2c(F)cc(C#Cc3ccccc3)nc2F)c1 [Compound 40, tert-butyl N-[4-chloro-3-[[2,4-difluoro-6-(2-phenylethynyl)-3-pyridyl]carbamoyl]phenyl]carbamate]",470 nM
8,"Cc1cc(C#Cc2cccnc2)cnc1NC(=O)c1cc(NC(=O)OC(C)(C)C)ccc1Cl [Compound 41, tert-butyl N-[4-chloro-3-[[3-methyl-5-[2-(3-pyridyl)ethynyl]-2-pyridyl]carbamoyl]phenyl]carbamate]",530 nM
9,"Cc1cc(C#Cc2ccccc2F)cnc1NC(=O)c1cc(NC(=O)OC(C)(C)C)ccc1Cl [Compound 42, tert-butyl N-[4-chloro-3-[[5-[2-(2-fluorophenyl)ethynyl]-3-methyl-2-pyridyl]carbamoyl]phenyl]carbamate]",540 nM
10,"C[C@H]1C[C@@H]1C(=O)Nc1ccc(Cl)c(C(=O)Nc2ncc(C#Cc3cccc(F)c3)cc2F)c1 [Compound 4, 2-chloro-N-[3-fluoro-5-[2-(3-fluorophenyl)ethynyl]-2-pyridyl]-5-[[(1S,2S)-2-methylcyclopropanecarbonyl]amino]benzamide]",130 nM
11,"Cc1cc(C#Cc2ccccc2)cnc1NC(=O)c1cc(NC(=O)OC(C)(C)C)cc(F)c1Cl [Compound 35, tert-butyl N-[4-chloro-3-fluoro-5-[[3-methyl-5-(2-phenylethynyl)-2-pyridyl]carbamoyl]phenyl]carbamate]",400 nM
12,"CC(C)(C)OC(=O)Nc1ccc(Cl)c(C(=O)Nc2ncc(C#Cc3ccccc3)cc2F)n1 [Compound 38, tert-butyl N-[5-chloro-6-[[3-fluoro-5-(2-phenylethynyl)-2-pyridyl]carbamoyl]-2-pyridyl]carbamate]",440 nM
13,"Cc1cc(C#Cc2ccc(F)cc2)cnc1NC(=O)c1cc(NC(=O)C2COCCO2)ccc1Cl (stereo not shown) [Compound 14, N-[4-chloro-3-[[5-[2-(4-fluorophenyl)ethynyl]-3-methyl-2-pyridyl]carbamoyl]phenyl]-1,4-dioxane-2-carboxamide]",230 nM
14,"COCCOc1ccc(Cl)c(C(=O)Nc2ncc(C#Cc3ccccc3)cc2C)c1 [Compound 24, 2-chloro-5-(2-methoxyethoxy)-N-[3-methyl-5-(2-phenylethynyl)-2-pyridyl]benzamide]",230 nM
15,"Cc1cc(C#Cc2ccccc2)cnc1NC(=O)c1cc(NC(=O)OC(C)(C)C)ccc1F [Compound 50, tert-butyl N-[4-fluoro-3-[[3-methyl-5-(2-phenylethynyl)-2-pyridyl]carbamoyl]phenyl]carbamate]",1080 nM
16,"Cc1nn(C)cc1-c1ccc(Cl)c(C(=O)Nc2ncc(C#Cc3ccccc3)cc2F)c1 [Compound 68, 2-chloro-5-(1,3-dimethylpyrazol-4-yl)-N-[3-fluoro-5-(2-phenylethynyl)-2-pyridyl]benzamide]",220 nM
17,"CC(C)(C)OC(=O)Nc1ccc(Cl)c(C(=O)Nc2ncc(-c3cnn(-c4ccc(F)cc4)c3)cc2F)c1 [Compound 92, tert-butyl (4-chloro-3-((3-fluoro-5-(1-(4-fluorophenyl)-1H-pyrazol-4 yl)pyridin-2-yl)carbamoyl)phenyl)carbamate]",130 nM
18,"Cc1cc(-c2cnn(-c3ccccc3)c2)cnc1NC(=O)c1cc(NC(=O)OC(C)(C)C)ccc1Cl [Compound 93, tert-butyl N-[4-chloro-3-[[3-methyl-5-(1-phenylpyrazol-4-yl)-2-pyridyl]carbamoyl]phenyl]carbamate]",190 nM
19,"Cc1cc(C#Cc2ccccc2)cnc1NC(=O)c1cc(-c2nnco2)ccc1Cl [Compound 77, 2-chloro-N-[3-methyl-5-(2-phenylethynyl)-2-pyridyl]-5-(1,3,4-oxadiazol-2-yl)benzamide]",470 nM

row,Structure (SMILES),IC50
1,"Cc1cc(COc2ccccc2)ccc1NC(=O)c1cc(NC(=O)OC(C)(C)C)ccc1Cl [Compound 26, tert-butyl (4-chloro-3-((2-methyl-4-(phenoxymethyl)phenyl)carbamoyl)phenyl)carbamate]",670 nM
2,"CC(C)(C)OC(=O)Nc1ccc(Cl)c(C(=O)Nc2ncc(-c3cnn(-c4ccccc4)c3)cc2F)c1 [Compound 97, tert-butyl N-[4-chloro-3-[[3-fluoro-5-(1-phenylpyrazol-4-yl)-2-pyridyl]carbamoyl]phenyl]carbamate]",290 nM
3,"Cc1cc(C#Cc2ccccc2)cnc1NC(=O)c1cc(OCC2CCOCC2)ccc1Cl [Compound 20, 2-chloro-N-[3-methyl-5-(2-phenylethynyl)-2-pyridyl]-5-(tetrahydropyran-4-ylmethoxy)benzamide]",90 nM
4,"Cc1cc(C#Cc2ccccc2)cnc1NC(=O)c1cc(C(=O)N2CCCC2C)ccc1Cl (stereo not shown) [Compound 69, 2-chloro-N-[3-methyl-5-(2-phenylethynyl)-2-pyridyl]-5-(2-methylpyrrolidine-1-carbonyl)benzamide]",230 nM
5,"Cc1ncc(-c2ccc(Cl)c(C(=O)Nc3ncc(C#Cc4ccccc4)cc3C)c2)s1 [Compound 75, 2-chloro-N-[3-methyl-5-(2-phenylethynyl)-2-pyridyl]-5-(2-methylthiazol-5-yl)benzamide]",450 nM
6,"Cc1cc(C#Cc2ccccc2)cnc1NC(=O)c1cc(C(=O)N2CC(F)(F)C2)ccc1Cl [Compound 16, 2-chloro-5-(3,3-difluoroazetidine-1-carbonyl)-N-[3-methyl-5-(2-phenylethynyl)-2-pyridyl]benzamide]",320 nM
7,"Cc1nc(C)c(-c2ccc(Cl)c(C(=O)Nc3ncc(C#Cc4ccccc4)cc3C)c2)s1 [Compound 70, 2-chloro-5-(2,4-dimethylthiazol-5-yl)-N-[3-methyl-5-(2-phenylethynyl)-2-pyridyl]benzamide]",260 nM
8,"Cc1cc(C#Cc2ccc(F)cc2)cnc1NC(=O)c1cc(NC(=O)C2CCO2)ccc1Cl (stereo not shown) [Compound 12, N-[4-chloro-3-[[5-[2-(4-fluorophenyl)ethynyl]-3-methyl-2-pyridyl]carbamoyl]phenyl]oxetane-2-carboxamide]",310 nM
9,"Cc1cc(C#Cc2ccccc2)cnc1NC(=O)c1cc(-c2cnn(C3COC3)c2)ccc1Cl [Compound 58, 2-chloro-N-[3-methyl-5-(2-phenylethynyl)-2-pyridyl]-5-[1-(oxetan-3-yl)pyrazol-4-yl]benzamide]",130 nM
10,"Cc1cc(C#Cc2cccc(F)c2)cnc1NC(=O)c1cc(C(=O)N2CC(C)(O)C2)ccc1Cl [Compound 18, 2-chloro-N-[5-[2-(3-fluorophenyl)ethynyl]-3-methyl-2-pyridyl]-5-(3-hydroxy-3-methyl-azetidine-1-carbonyl)benzamide]",240 nM
11,"Cc1cc(C#Cc2ccccc2)cnc1N1Cc2ccc(OCC3CCOCC3)cc2C1=O [Compound 82, 2-(3-methyl-5-(phenylethynyl)pyridin-2-yl)-6-((tetrahydro-2H-pyran-4-yl)methoxy)isoindolin-1-one]",390 nM
12,"Cc1cc(C#Cc2ccccc2)cnc1NC(=O)c1cc(C(=O)NC(C)(C)CO)ccc1Cl [Compound 17, 4-chloro-N1-(2-hydroxy-1,1-dimethyl-ethyl)-N3-[3-methyl-5-(2-phenylethynyl)-2-pyridyl]benzene-1,3-dicarboxamide]",180 nM
13,"Cc1cc(C#Cc2ccccc2)cnc1NC(=O)c1cc(-c2c(C)cnn2C)ccc1Cl [Compound 76, 2-chloro-5-(2,4-dimethylpyrazol-3-yl)-N-[3-methyl-5-(2-phenylethynyl)-2-pyridyl]benzamide]",450 nM
14,"Cc1cc(C#Cc2ccccc2)nc(C)c1NC(=O)c1cc(NC(=O)OC(C)(C)C)ccc1Cl [Compound 48, tert-butyl N-[4-chloro-3-[[2,4-dimethyl-6-(2-phenylethynyl)-3-pyridyl]carbamoyl]phenyl]carbamate]",950 nM
15,"Cc1cc(C#Cc2ccccc2)cnc1NC(=O)c1nc(NC(=O)C2CC2C)ccc1Cl (stereo not shown) [Compound 33, 3-chloro-6-[(2-methylcyclopropanecarbonyl)amino]-N-[3-methyl-5-(2-phenylethynyl)-2-pyridyl]pyridine-2-carboxamide]",290 nM
16,"Cc1cc(C#Cc2ccccc2)cnc1NC(=O)c1cc(C(=O)N2CC(O)C2)ccc1Cl [Compound 71, 2-chloro-5-(3-hydroxyazetidine-1-carbonyl)-N-[3-methyl-5-(2-phenylethynyl)-2-pyridyl]benzamide]",300 nM
17,"Cc1cc(C#Cc2ccccc2)cnc1NC(=O)c1cc(-c2noc(C3CCOC3)n2)ccc1Cl (stereo not shown) [Compound 19, 2-chloro-N-[3-methyl-5-(2-phenylethynyl)-2-pyridyl]-5-(5-tetrahydrofuran-3-yl-1,2,4-oxadiazol-3-yl)benzamide]",50 nM
18,"Cc1cc(C#Cc2cnccn2)cnc1NC(=O)c1cc(NC(=O)OC(C)(C)C)ccc1Cl [Compound 39, tert-butyl N-[4-chloro-3-[[3-methyl-5-(2-pyrazin-2-ylethynyl)-2-pyridyl]carbamoyl]phenyl]carbamate]",470 nM

# Reference: US20240190824A1, “INHIBITORS OF TREK (TWIK RELATED K+ CHANNELS) CHANNEL FUNCTION” (ONO PHARMACEUTICAL CO., LTD., priority 2019, published 2024)
